According to patent US9815788B2, “Anti-angiogenic compounds” (University College Dublin National University of Ireland, …, priority 2012, dated 2017):
Where a name gives a salt, the structure may show the parent alone.

Columns and labels:
[1] = test system: OE33P radio-sensitive oesophageal adenocarcinoma cells; assay: Surviving fraction (colony formation), OE33P; assay type: cell-based, human; conditions: 10 μM, 24 hours
Procedure: (§1) OE33P radio-sensitive and OE33R radio-resistant oesophageal adenocarcinoma cells were used to test the effects of the compounds 11B HCl and 11B CC11 HCl on cell survival. Cells were maintained in RPMI media supplemented with 10% foetal calf serum, penicillin (100 U/ml) and streptomycin (100 μg/ml). Cells were seeded in 6 well plates and left to incubate for 24 hours. The media was replaced with solutions containing 10 μM of 11B HCl, 11B CC11 HCl or fresh media as a control. After 24 hours of treatment, media was replaced. When control colonies had grown sufficiently large, the media was disposed and the cells washed with PBS. The cells were fixed with methanol and stained with crystal violet. The surviving fraction, the ability of the cells to form colonies was then determined.
as §1, with “replaced and cells were subjected to 2Gy radiation.” for “replaced.”, “Surviving” for “The surviving”
OE33P radio-sensitive and OE33R radio-resistant oesophageal adenocarcinoma cells were used to test the effects of the compounds 11B HCl and 11B CC11 HCl on cell survival. Cells were maintained in RPMI media supplemented with 10% foetal calf serum, penicillin (100 U/ml) and streptomycin (100 μg/ml). Cells were seeded in 6 well plates and left to incubate for 24 hours. […] Surviving fraction, the ability of the cells to form colonies was then determined.

[2] = test system: RAD51L3, MMS19, SMUG1, PARP1 and MLH1 in OE33P cells; assay: Gene expression of DNA repair proteins (qPCR), OE33P; assay type: cell-based, human; conditions: 10 μM, 24 hours, reductions of RAD51L3, MMS19, SMUG1 and PARP1
Procedure: (§2) O[…] radiosensitive and O[…] radioresistant oesophageal adenocarcinoma cells were used to test the effects of the above compounds on the gene expression of DNA repair proteins. Cells were maintained in RPMI media supplemented with 10% foetal calf serum, penicillin (100 U/ml) and streptomycin (100 μg/ml). Cells were seeded in 6 well plates and left to incubate for 24 hours. Cells were treated 10 μM of the above compounds or fresh media as a control. After 24 hours of treatment, RNA and cDNA was isolated and qPCR performed using primer probes to the following primer probes to RAD51L3, MMS19, SMUG1, PARP1 and MLH1. O[…] radiosensitive and O[…] radioresistant oesophageal adenocarcinoma cells were used to test the effects of compounds 11B HCl, 11B_CC11_HCl and 11B_Z_HCL on the gene expression of DNA repair proteins. Cells were maintained in RPMI media supplemented with 10% foetal calf serum, penicillin (100 U/ml) and streptomycin (100 μg/ml). Cells were seeded in 6 well plates and left to incubate for 24 hours. Cells were treated 10 μM of the above compounds or fresh media as a control. After 24 hours of treatment, RNA and cDNA was isolated and qPCR performed using primer probes to the following primer probes to RAD51L3, MMS19, SMUG1, PARP1 and MLH1.

[3] = test system: RAD51L3, MMS19, SMUG1, PARP1 and MLH1 in OE33R cells; assay: Gene expression of DNA repair proteins (qPCR), OE33R; assay type: cell-based, human; conditions: 10 μM, 24 hours, reduction of RAD51L3, MMS19, PARP1 and MLH1
Procedure: as §2

[4] = test system: OE33R radio-resistant oesophageal adenocarcinoma cells; assay: Surviving fraction (colony formation), OE33R; assay type: cell-based, human; conditions: 10 μM, 24 hours
Procedure: as §1
as §1, with “replaced and cells were subjected to 2Gy radiation.” for “replaced.”, “Surviving” for “The surviving”
as §1, with “hours. The cells were subjected to 2Gy irradiation and the media was” for “hours. The media was”, “crystal violet. Surviving fraction, the” for “crystal violet. The surviving fraction, the”

[5] = test system: zebrafish intersegmental vessels; assay: Quantification of intersegmental vessel number in zebrafish; assay type: in vivo; conditions: for inhibition of developmental angiogenesis of intersegmental vessels (number of intersegmental vessels): 10 μM, from 6 hpf; for dose-dependent inhibition of development of intersegmental vessels: decreasing doses 10, 7.5, 5 and/or 1 μM, HCl salt
Method in brief: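 Zebrafish larvae were dechorionated by hand, euthanised, and fixed overnight at 4° C. in 4% PFA before being analysed. Following PBS washes, they were placed on depression slides and examined by epi-fluorescence on an Olympus SZX16 fluorescent microscope. Intersegmental vessels were counted, and the mean count was plotted for each drug.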

[6] = test system: zebrafish hyaloid vasculature; assay: Quantification of primary hyaloid vasculature branch number in Tg(fli1:EGFP) zebrafish; assay type: in vivo; conditions: for dose-dependent inhibition of development of hyaloid vessels: decreasing doses 20, 10, 7.5, 5, 2.5, 1 and/or 0.5 μM, HCl salt; for inhibition of developmental angiogenesis of the hyaloid vasculature (number of primary hyaloid vessels): typically 10 μM or 5 μM, from 24 hpf, vs DMSO control
Method in brief: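 Tg(fli1:EGFP) larvae raised at 28° C on a 14/10 hr light cycle, euthanised and fixed overnight in 4% PFA at 4° C. Dissected lenses imaged by epi-fluorescence; hyaloid vessel patterning compared with DMSO controls and the archetypal pattern.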

[7] = treated prior to 2Gy irradiation
[8] = treated following 2Gy irradiation

Compound	surviving fraction ([1]; no irradiation)	surviving fraction [1, 7]	expression of DNA repair genes [2]	expression of DNA repair genes [3]	surviving fraction ([4]; no irradiation)	surviving fraction [4, 8]	surviving fraction [4, 7]	inhibition of developmental angiogenesis of intersegmental vessels (number of intersegmental vessels) [5]	dose-dependent inhibition of development of intersegmental vessels [5]	dose-dependent inhibition of development of intersegmental vessels ([5]; listed as 11B-CC11 HCl)	dose-dependent inhibition of development of hyaloid vessels [6]	dose-dependent inhibition of development of hyaloid vessels ([6]; listed as 11B-CC11 HCl)	inhibition of developmental angiogenesis of the hyaloid vasculature (number of primary hyaloid vessels) [6]
Oc1ccccc1/C=C/c1ccc2ccccc2n1 [11B HCl]	significantly reduce	significantly reduces	Reduction	Reduction	significantly reduce	significantly reduce	significantly reduce	–	–	–	–	–	–
C/C(=C\c1ccccc1O)c1ccc2ccccc2n1.Cl [Compound 11B_CC11_HCl, (E)-2-(2-Quinolin-2-yl-propenyl)-phenol HCl salt]	significantly reduce	–	Reduction	Reduction	significantly reduce	significantly reduce	significantly reduce	inhibit developmental angiogenesis of zebrafish intersegmental vessels in a statistically significant manner	inhibit developmental angiogenesis of zebrafish intersegmental vessels in a dose-dependent statistically significant manner	dose-dependent effect	inhibit developmental angiogenesis of zebrafish hyaloid vasculature in a dose-dependent statistically significant manner	dose-dependent effect	inhibit developmental angiogenesis of the zebrafish hyaloid vasculature in a statistically significant manner
Cl.Oc1ccccc1/C=C\c1ccc2ccccc2n1 [Compound 11B_Z_HCl, (Z)-2-(2-(Quinolin-2-yl)vinyl) phenol HCl salt]	–	–	Reduction	Reduction	–	–	–	inhibit developmental angiogenesis of zebrafish intersegmental vessels in a statistically significant manner	–	–	–	–	inhibit developmental angiogenesis of the zebrafish hyaloid vasculature in a statistically significant manner
